Patent publication US12498375B2, “Water-soluble compound for detection of beta-amyloid” (KOREA ATOMIC ENERGY RESEARCH INSTITUTE, priority 2020, dated 2025)

Key:
[1] = biological target: T1, Ab42 fibrils (Homo sapiens, UniProt P05067); assay: Measurement of maximum excitation and emission wavelengths (SpectraMax M2); format: physicochemical; details: 10 μM Ab42 fibrils, 5 μM compound, PBS buffer
T1 construct: 10 μM of Ab42 fibrils
Experimental: The maximum excitation and emission wavelengths λmax of the Compounds 1, 2, 4, and 5 according to the present invention were measured by SpectraMax M2 (molecular devices). 10 μM of Ab42 fibrils and 5 μM of each compound, produced by the aforementioned method, as final concentrations were used in a PBS buffer solution. In general, the excitation λmax is determined by scanning the fixed first emission, and the emission λmax is determined by scanning the excitation spectrum with the fixed λmax. The absorbance of each of the Compound 1, Compound 2, Compound 4, and Compound 5 synthesized above was measured, and the results thereof are shown in FIG. 2.

[2] = biological target: T2, beta-amyloid (Aβ42 aggregate) (Homo sapiens, UniProt P05067); assay: Evaluation of activity (fluorescence) before and after binding to beta-amyloid; details: for Change in fluorescence intensity after binding to beta-amyloid: before vs after binding to Aβ42 aggregate; for Faβ/F0 (fluorescence reactivity to the Aβ peptide): before vs after binding to Aβ peptide
T2 construct: 10 μM of Ab42 fibrils
T2 sequence (P05067 672-713 limits assumed): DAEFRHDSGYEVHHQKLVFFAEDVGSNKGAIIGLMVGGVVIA
Experimental: Regarding each of the Compound 1, Compound 2, Compound 4, and Compound 5 synthesized above, the activity before and after binding to beta-amyloid was evaluated, and the results thereof are shown in FIG. 3. […] Moreover, the absorption wavelengths of each of the Compound 1, Compound 2, Compound 4, and Compound 5 before and after binding to beta-amyloid are shown in Table 2 below. […] In particular, regarding the fluorescence reactivity to the Aβ peptide, the Faβ/F0 values of the Compounds 1, 2, 4, and 5 were 4.3, 11.6, 3.1, and 9.6, respectively, indicating high fluorescence properties (see Table 2 below). Furthermore, from FIG. 3, it was confirmed that there was a clear difference in the emission wavelength before and after the compound according to the present invention bound to the amyloid plaque.

[3] = Retina-targeting experiment in laboratory mouse (IVIS spectrum CT imaging); format: in vivo; details: 8 mg/kg tail vein, 3-month-old nude mouse
Experimental: A water-soluble Compound 1 (8 mg/kg) was injected into the tail vein of a 3-month-old nude mouse, and imaging was carried out with an IVIS spectrum CT system device, and the results thereof are shown in FIG. 4.

T1 sequence (P05067 672-713 limits assumed): as above

Row | λem [1] [nm] | λex [1] [nm] | Change in fluorescence intensity after binding to beta-amyloid [2] [fold] | Faβ/F0 (fluorescence reactivity to the Aβ peptide) [2] | fluorescence signal in the eye of mouse ([3]; 1 minute after intravenous injection) | fluorescence signal in the eye of mouse ([3]; 10 minutes after intravenous injection) | SMILES
1 | 765 | 805 | 11.6 | 11.6 | – | – | CN(C)c1ccc(-c2ccc(/C=C/C3=[N+](CCCCS(=O)(=O)[O-])c4ccc5ccccc5c4C3(C)C)s2)cc1 [Compound 2, (E)-4-(2-(2-(5-(4-(dimethylamino)phenyl)thiophen-2-yl)vinyl)-1,1-dimethyl-1H-benzo[e]indol-3-ium-3-yl)butane-1-sulfonate]
2 | 760 | 575 | 9.6 | 9.6 | – | – | CNc1ccc(-c2ccc(/C=C/C3=[N+](CCCCS(=O)(=O)[O-])c4ccc5ccccc5c4C3(C)C)s2)cc1 [Compound 5, (E)-4-(1,1-dimethyl-2-(2-(5-(4-(methylamino)phenyl)thiophen-2-yl)vinyl)-1H-benzo[e]indol-3-ium-3-yl)butane-1-sulfonate]
3 | 620 | 570 | 3.1 | 3.1 | – | – | CC1(C)C(/C=C/c2ccc(N3CCNCC3)cc2)=[N+](CCCCS(=O)(=O)[O-])c2ccc3ccccc3c21 [Compound 4, (E)-4-(1,1-dimethyl-2-(4-(piperazin-1-yl)styryl)-1H-benzo[e]indol-3-ium-3-yl)butane-1-sulfonate]
4 | 620 | 560 | 4.3 | 4.3 | strong fluorescence signal | weak fluorescence signal | CN(C)c1ccc(/C=C/C2=[N+](CCCCS(=O)(=O)[O-])c3ccc4ccccc4c3C2(C)C)cc1 [Compound 1]
